Data set [1] deals with dp/dt (left ventricular blood pressure). Nature of the data set: Intrinsic (inotropic) action on the dp/dt. In kind it is in vivo, dogs. Conditions: number of - and + signs indicates strength of the effect.
The subject of data set [2] is changes of the dp/dt max. after isoproterenol (left ventricular blood pressure). Description: Antagonism of isoproterenol-induced change of left ventricular dp/dt max. in narcotised dogs (catheter tip manometer). In kind it is in vivo. The note with it: Canis lupus familiaris, iv, isoproterenol 0.5·10^-6 gram/kg i.v., cumulative doses of test substance. Here is the method:
Isoproterenol (0.5 ^. 10^-^6 gram/kg i.v.) was injected at intervals of 15 minutes before and after increasing doses of the test substance. The changes of the dp/dt max. after isoproterenol were determined before and after the intravenous administration of the test substance. These values were used to calculate the ED50. The doses quoted in each case are the cumulative doses of the test substance.

Data set [3] relates to heart (inotropic intrinsic action). The note with it: words, cited from earlier work.

For `CCOc1ccc(OCC(O)CNC(C)CC(O)c2cccnc2)cc1` (single isomer, unassigned; (-)) [(-)-1-(3'-β-pyridyl-3'-hydroxy-1'-methyl-propylamino)-3-(p-ethoxyphenoxy)-propan-2-ol, laevo-rotatory], in data set [1], the “Intrinsic action on the dp/dt” value was 0.

In data set [2], `CCOc1ccccc1OCC(O)CNC(C)CC(O)c1cccnc1` (single isomer, unassigned; (-)) [(-)-1-β-Pyridyl-3-[3-(o-ethoxyphenoxy)-2-hydroxy-propylamino]-butan-1-ol (laevo-rotatory)] gave an ED50 of 0.0026 mg/kg.

As for `CCOc1ccccc1OCC(O)CNC(C)CC(O)c1cccnc1` (stereo not drawn) [1-(3'-β-Pyridyl-3'-hydroxy-1'-methyl-propylamino)-3-(o-ethoxyphenoxy)-propan-2-ol], the ED50 in data set [2] worked out at 0.0151 mg/kg. Moreover, the “Intrinsic action on the dp/dt” value in data set [1] turned out to be 0.

Take `CC(CC(O)c1cccnc1)NCC(O)COc1ccccc1-c1ccccc1` (stereo not drawn) [1-(3'-β-Pyridyl-3'-hydroxy-1'-methyl-propylamino)-3-(o-phenylphenoxy)-propan-2-ol]: the “Intrinsic action on the dp/dt” value in data set [1] is 0.

In turn, `COc1cccc(OCC(O)CNC(C)CC(O)c2cccnc2)c1` (stereo not drawn) [1-(3'-β-pyridyl-3'-hydroxy-1'-methyl-propylamino)-3-(m-methoxyphenoxy)-propan-2-ol] yielded an ED50 in data set [2] of 0.012 mg/kg.

In the case of `Cc1cccc(OCC(O)CNC(C)CC(O)c2cccnc2)c1` (stereo not drawn) [1-(3'-β-pyridyl-3'-hydroxy-1'-methyl-propylamino)-3-(m-methylphenoxy)-propan-2-ol], the 50% effect level in data set [2] (ED50) was put at a dose of 0.0175 mg/kg.

Turning to `C=CCOc1ccccc1OCC(O)CNC(C)CC(O)c1cccnc1` (stereo not drawn) [1-(3'-β-pyridyl-3'-hydroxy-1'-methyl-propylamino)-3-(o-allyloxyphenoxy)-propan-2-ol], the ED50 in data set [2] was found to be 0.008 mg/kg. Compared with the last compound, the ED50 is about 2.2-fold lower.

On to `C=CCc1ccccc1OCC(O)CNC(C)CC(O)c1cccnc1` (stereo not drawn) [1-(3'-β-pyridyl-3'-hydroxy-1'-methyl-propylamino)-3-(o-allylphenoxy)-propan-2-ol], for which the 50% effect level in data set [2] (ED50) was put at a dose of 0.0178 mg/kg.

Compound `CC(CC(O)c1cccnc1)NCC(O)COc1ccccc1Cl` (stereo not drawn) [1-(3'-β-pyridyl-3'-hydroxy-1'-methyl-propylamino)-3-(o-chlorophenoxy)-propan-2-ol] returned an ED50 in data set [2] of 0.0082 mg/kg. Further, the “Intrinsic action on the dp/dt” value in data set [1] worked out at 0.

In turn, `COc1ccccc1OCC(O)CNC(C)CC(O)c1cccnc1` (stereo not drawn) [1-(3'-β-pyridyl-3'-hydroxy-1'-methyl-propylamino)-3-(o-methoxyphenoxy)-propan-2-ol] had an ED50 in data set [2] of 0.006 mg/kg.

The compound `CC(=O)Nc1ccc(OCC(O)CNC(C)CC(O)c2cccnc2)cc1` (stereo not drawn) [1-(3'-β-pyridyl-3'-hydroxy-1'-methyl-propylamino)-3-(p-acetamino-phenoxy)-propan-2-ol] gave an ED50 in data set [2] of 0.0146 mg/kg. This ED50 is about 2.4-fold higher than that of the compound before.

Compound `CC(CC(O)c1cccnc1)NCC(O)COc1ccc(Cl)cc1` (stereo not drawn) [1-(3'-β-pyridyl-3'-hydroxy-1'-methyl-propylamino)-3-(p-chlorophenoxy)-propan-2-ol] came in with an ED50 in data set [2] of 0.03 mg/kg.

In data set [2], `CCOc1ccc(OCC(O)CNC(C)CC(O)c2cccnc2)cc1` (stereo not drawn) [1-(3'-β-pyridyl-3'-hydroxy-1'-methyl-propylamino)-3-(p-ethoxyphenoxy)-propan-2-ol] gave an ED50 of 0.0448 mg/kg.

Take `CCCCCOc1ccc(OCC(O)CNC(C)CC(O)c2cccnc2)cc1` (stereo not drawn) [1-(3'-β-pyridyl-3'-hydroxy-1'-methyl-propylamino)-3-(p-pentoxyphenoxy)-propan-2-ol]: the ED50 in data set [2] was determined as 0.0184 mg/kg. Also, the “Intrinsic action on the dp/dt” value in data set [1] is 0.

`CCCOc1ccc(OCC(O)CNC(C)CC(O)c2cccnc2)cc1` (stereo not drawn) [1-(3'-β-pyridyl-3'-hydroxy-1'-methyl-propylamino)-3-(p-propoxyphenoxy)-propan-2-ol] returned an ED50 in data set [2] of 0.0167 mg/kg.

In turn, `CC(C)NCC(O)COc1cccc2ccccc12` (stereo not drawn) [Propranolol] yielded an ED50 in data set [2] of 0.0561 mg/kg. Besides, in data set [3], the “inotropic intrinsic action (clinical practice)” value is listed as “strongly negative-inotropic intrinsic action”. Further, the cardiac insufficiency risk result in data set [3] (clinical practice) was “capable of causing an acute cardiac insufficiency or liable to intensify an already existing cardiac insufficiency”.

The values are drawn from patent US4018778A, “Derivatives of 1-phenoxy-3-amino-propane-2-ol and process for their production” (Cassella Farbwerke Mainkur Aktiengesellschaft, priority 1972, dated 1977).
